{"source": "patent US20250346588A1", "about": "“IMIDAZOPYRIDINE AND OXAZOLOPYRIDINE DERIVATIVES AND ANALOGS THEREOF, METHODS OF PREPARATION THEREOF, METHODS OF HIF-1/2A PATHWAY INHIBITION, AND INDUCTION OF FERROPTOSIS” (KUDA THERAPEUTICS, INC., priority 2022, published 2025)", "key": {"Bioavailability studies": {"test": "Bioavailability studies", "assay_type": "in vivo", "settings": "mouse, in vivo, Swiss albino mice"}, "IRP2 and GPX4": {"system": "IRP2 and GPX4", "test": "Western blots for cellular iron-sensing machinery (IRP2, GPX4)", "assay_type": "cell-based, human", "description": "Western blots were performed to determine the effects of the compounds on levels of HIF-2α and other relevant proteins, whereas qPCR was performed to determine the effects of compounds on transcript levels of HIF target genes. 786-0 or RCC10 cells were plated at 1×10E5 cells/well in 2 ml DMEM with 10% FBS/well in 6-well tissue culture plates. Cells were allowed to adhere overnight in a humidified incubator at 37° C. with 5% CO2, after which the appropriate concentrations of compounds in DMSO were added. DMSO concentrations were kept constant in all wells. After 24 h exposure to the compounds, cells were lysed and subjected to western blotting according to standard protocols. Antibodies for HIF-1α and HIF-2α and GAPDH were purchased from Cell Signaling Technology (Danvers, MA), whereas antibodies to IRP2 and pVHL were from Santa Cruz Biotechnology (Dallas, TX), and GPX4 antibody was from R&D Systems, Inc (Minneapolis, MN). Representative data in FIG. 2 show a dose-dependent effect of compounds in decreasing HIF-1/2α. Compounds also impact cellular iron sensing given by increased IRP2, which taken together indicate that cells sense decreased amounts of available iron, which triggers the iron starvation response initiated by IRP2 stabilization. Representative data shown in FIG. 3D show a dose dependent effect of the compounds on GPX4, which may indicate decreased resistance to ferroptosis. […] The data also show increased expression of ISCA2 with pVHL re-expression."}, "[1]": {"system": "HIF target genes VEGFA and POU5F1", "test": "qPCR of HIF target genes", "assay_type": "cell-based, human", "settings": "FIG. 2C", "description": "For qPCR, cells seeded as described above were harvested for RNA isolation using the RNA Clean and Concentrator kit (Zymo Research, Irvine CA) according to the manufacturer's protocol. cDNA was prepared using the High Capacity […] kit from Thermo Fisher Scientific (Waltham, […]). qRT-PCR was performed using pre-designed Taqman Gene Expression assay primer/probes and master mix (Thermo Fisher Scientific) according to the manufacturer's protocol using the QuantStudio 3 Real-Time PCR System (ThermoFisher). Relative changes in gene expression normalized to the control gene, […] was determined using the ΔΔCt method."}, "786-0 ccRCC cells": {"system": "786-0 ccRCC cells", "test": "ICP-MS of cellular iron, zinc and copper", "assay_type": "cell-based, human", "settings": "786-0 cells, 2.5 μM compound", "description": "These studies were performed to determine the content of iron and other transition metals in cells after exposure the compounds described herein. 786-0 cells were seeded at 1.5 million cells/flask in T75 cm^2 flasks in DMEM+10% FBS, and allowed to adhere overnight. Cells were then treated with indicated concentrations of compounds in DMSO or DMSO alone (vehicle) for a further 24 h, after which cells were detached by trypsinization, counted, washed twice in phosphate-buffered saline (PBS) and pelleted. Experiments were performed using three replicate T75 cm^2 flasks per condition. A 5:1 mixture of nitric acid (OPTIMA Grade, 70%, Fisher Scientific) and ultrapure hydrogen peroxide (ULTREX II, 30%, Fisher Scientific) was added to cell pellets. This mixture was allowed to digest overnight, heated until dry, and resuspended in 2% nitric acid for analysis using an Agilent 7900 ICP-MS (Agilent Technologies, Santa Clara, CA). Calibration standard solutions for determination of Fe were prepared from Agilent multi-element calibration standard-2A. An Agilent Environmental Calibration Standard was used as an independent control. PBS-only control digestions were used to measure background. Metal readings were normalized to cell number. Data obtained from these studies for three replicate readings (with SEM) are shown in FIG. 3, which show an increase in cellular iron (Fe) content after treatment with indicated compounds."}, "786-0 cells": {"system": "786-0 cells", "test": "TBARS assay of lipid peroxidation (MDA)", "assay_type": "cell-based, human", "settings": "48h treatment", "description": "Malondialdehyde (MDA) is an end product of lipid peroxidation products and can be used to indicate lipid peroxidation, which is a hallmark of ferroptosis. MDA adducts were quantitated in cells and tumor tissue using the TBARS-TCA Method kit (Cat 700870, Cayman Chemicals, Ann Arbour Michigan) according to the manufacturer's protocol. Briefly, 786-0 cells were seeded at 1.75×10E6 cells in T75 cm^2 flasks, allowed to adhere overnight in a humidified incubator at 37° C. with 5% CO2, then treated with test compounds for 48 h, RSL3 (as positive control for 6h) or DMSO control (volume of DMSO kept constant for all flasks). Cells were detached by trypsinization, pelleted by centrifugation, washed in PBS twice, resuspended in 200 μL PBS, then sonicated for 3 minutes in a sonicating water bath. Representative data showing effects of 26HCL or 62TFA in comparison to RSL3, a classical ferroptosis inducer, is shown in FIG. 5. For MDA quantitation in tumor chunks, 20-50 mg of tumor tissue was homogenized in 200-500 μL of PBS, then sonicated for 5 minutes in a sonicating water bath. The cell or tumor lysates were subjected to the colorimetric detection methods described in manufacturer's protocol. MDA concentration of cells was determined in comparison to a standard curve of MDA stock solution provided by the manufacturer. Data was plotted using Prism GraphPad 9.3.1 Software. […]"}, "[2]": {"system": "RCC10 or 786-0 cells with stable overexpression of empty vector or ISCA2", "test": "Cell viability with ISCA2 overexpression", "assay_type": "cell-based, human", "settings": "24h"}}}
{"smiles": "COc1ccc(-c2nnc(Nc3nc4c(OC)nccc4[nH]3)o2)cc1OC", "note": "[Compound 26HCL, N-(4-Methoxy-1H-imidazo[4,5-c]pyridin-2-yl)-5-(3,4-dimethoxyphenyl)-1,3,4-oxadiazol-2-amine]", "values": [{"measurement": "bioavailability", "setting": "Bioavailability studies; oral, read-out: Bioavailability F", "result": 27.3, "unit": "%"}, {"measurement": "half-life", "setting": "Bioavailability studies; read-out: half-life (converted)", "result": 3.61, "unit": "h"}, {"measurement": "effect on IRP2 protein (Western blot)", "setting": "IRP2 and GPX4; 786-0 or RCC10 ccRCC cells, 24h, relative to GAPDH", "result": "increases IRP2"}, {"measurement": "effect on IRP2 and GPX4 protein (Western blot)", "setting": "IRP2 and GPX4; higher concentrations of compound, FIG. 3D", "result": "decrease in IRP2 and GPX4"}, {"measurement": "effect on transcription of HIF target genes (VEGFA, POU5F1)", "setting": "[1]", "result": "decrease transcription of HIF target genes"}, {"measurement": "cellular iron (Fe), zinc (Zn) and copper (Cu) content", "setting": "786-0 ccRCC cells", "result": "increases the content of iron, zinc and copper in cells"}, {"measurement": "lipid peroxidation (MDA-TBA adducts)", "setting": "786-0 cells", "result": "induce lipid peroxidation to an extent comparable to the ferroptosis inducer RSL3"}, {"measurement": "effect of ISCA2 overexpression on cell viability response to compound", "setting": "[2]", "result": "ISCA2 overexpression promotes resistance"}]}
